Results taken from patent publication US10758609B2, “Cross-reactive T-cell epitopes of HIV, SIV, and FIV for vaccines in humans and cats” (priority 2015, dated 2020).

Assays:
[1] = tested on: PBMC from FIV-vaccinated cats; experiment: Feline IFNγ ELISpot of PBMC from vaccinated cats; type: cell-based, cat; conditions: for IFNγ response rate: MAP Trial 2; for IFNγ production: pilot study, pre-challenge
Protocol: IFNγ and IL2 ELISpot analyses were performed using feline IFNγ ELISpot and feline IL2 ELISpot kits (R&D Systems, Cat# SEL764 and SEL1890) as described. The threshold is defined as ≥50 spot forming units (SFU) per 1×10^6 PBMC when counted with MVS ELISpot Reader (MVS Pacific, LLC). Each result is an average of the duplicate samples after subtraction of the average value of the media controls.
(§1) Concurrently, the overlapping peptide pools of FIV structural/enzyme proteins were used to stimulate PBMC and T cells from FIV-vaccinated cats. These cats were vaccinated with prototype dual-subtype FIV vaccine which was the prototype to our commercial FIV vaccine (Coleman et al., 2014). The feline assays (Example 1) equivalent to those of human assays (Sanou et al., 2013; Roff et al., 2015) were used except for ICS analysis. In place of ICS for cytolysin/cytotoxins, IL2 ELISpot analysis was performed. […] The results for FIV-vaccinated cats included IFNγ and IL2 productions and CD3^+CD4+ and CD3^+CD8^+ T-cell proliferation (Table 9, the second set of results).
The feline IFNγ and L2 ELISpot analyses of PBMC to FIV MAPs and peptides were performed as previously described (Abbott et al. (2012)) using feline IFNγ modular kit (R&D Systems, Minneapolis, Minn.) and feline IL2 modular kit (R&D Systems). All results shown in the figures (FIGS. 8A-1, 8B-1, 8A-2, 8B-2, 8A-3, 8B-3) are after subtracting the average value of the results from all control cats.
The second parameter evaluated was the ability of the peripheral blood mononuclear cells (PBMC) from vaccinated and control cats to produce IL2 and interferon-γ (IFNγ) proteins in responses to FIV MAPs and peptides (FIGS. 8A-1, 8A-2, 8A-3, 8B-1, 8B-2, 8B-3) using feline IL2 and IFNγ ELISpot assays (Aranyos et al. (2016); Abbott et al. (2012)). IL2 enhances the proliferation of FIV-specific CD4^+ T cells and CD8^+ T cells. IFNγ is known enhance the FIV-specific CTL activities in vaccinated cats (Abbas et al. (2015)).

[2] = tested on: feline CD3^+CD4^+ T cells; experiment: CFSE-based feline CD3+CD4+ T-cell proliferation; design: species or system cat; conditions: FIV-vaccinated cats; for CD4, frequency of responders: FIV epitope peptide; for CDC4^+ T (T-cell proliferation), frequency of responders: FIV peptides
Protocol: (§2) Carboxyfluorescein diacetate succinimide ester (CFSE)-proliferation was performed according to the manufacturer's protocol (Invitrogen, Grand Island, N.Y.) and processed using a previously described modification. The modification consisted of 2.5×10^5 CFSE-labeled feline PBMC stimulated for 5 days (37° C., 5% CO2) with 4 μg/mL peptide in culture media (RPMI medium 25 µg/mL gentamycin, and 10% heat-inactivated fetal bovine serum (FBS)). Peptide pools consisted of 3-5 overlapping peptides of 4 μg/mL each. The antibodies used for flow cytometry based proliferation analysis consisted of murine anti-feline (Fe) CD3 monoclonal antibody (MAb clone kindly provided by Drs. Yorihiro Nishimura and Takayuki Miyazawa; described in [32]) combined with secondary goat anti-mouse IgG3-APC/CY7 MAb (SouthernBiotech, Birmingham, Ala.; Cat#1100-19); and murine anti-FeCD4-PE MAb (SouthernBiotech, Cat#8130-09); and murine anti-FeCD8 MAb (MAb clone kindly provided by Dr. Nazareth Gengozian, described in [33]) with secondary goat anti-mouse IgG2a-PE/CY7 (Southern Biotech, Cat#1080-17). The murine anti-B220-APC MAb for detecting feline B cells (SouthernBiotech, Cat#1665-11) and previously described MAbs for CFSE were used for FACS phenotyping. Both FACS phenotyping and CFSE-proliferation analyses were performed with BD LSRII and FACSDiva™ Software (BD Biosciences, San Jose, Calif.). The final value for each sample was derived after subtraction of the average value of the media controls using a positive threshold of ≥1 CFSE^low.
as §1
(§3) Carboxyfluorescein diacetate succinimide ester (CFSE)-proliferation analysis was according to the manufacturer's protocol (Invitrogen-Fisher, Carlsbad, Calif.) and processed as previously described (Roff et al. (2015)) using the following modifications: anti-feline CD3 antibody ((clone NZM1), a generous gift from T. Miyazawa (Univ. of Tokyo, Japan)) in combination with APC-conjugated anti-mouse IgG3 (Southern Biotech, Birmingham, Ala.), PE-conjugated anti-feline CD4 antibody (Southern Biotech), and anti-feline CD8 antibody (gift from N. Gengozian, University of Tennessee (Gengozian et al. (1997))) in combination with PE/Cy7-conjugated anti-mouse IgG2b (Southern Biotech) to detect the proliferation of feline CD3^+CD4+ T cells and feline […]. All results shown in the figures (FIGS. 7A-1, 7B-1, 7A-2, 7B-2, 7A-3, 7B-3) are after subtracting the average value of each results from all control cats. The threshold of CFSE proliferation is ≥0.5 CFSE^low. […]

[3] = tested on: feline CD3^+CD8^+ T cells; experiment: CFSE-based feline CD3+CD8+ T-cell proliferation; design: species or system cat; conditions: FIV-vaccinated cats; for CD8, frequency of responders: FIV epitope peptide; for CD8^+ T (T-cell proliferation), frequency of responders: FIV peptides
Protocol: as §2, §1, §3

[4] = FIV peptides, FIV-vaccinated cats (prototype dual-subtype vaccine)
[5] = FIV epitope peptide, FIV-vaccinated cats

Row | Sequence | IFNγ, frequency of responders [1, 4] | CD4, frequency of responders [2] | CDC4^+ T (T-cell proliferation), frequency of responders [2] | CD8, frequency of responders [3] | CD8^+ T (T-cell proliferation), frequency of responders [3] | IFNγ, frequency of responders [1, 5] | IFNγ response rate ([1]; 6 weeks post-3rd vaccination) [%] | IFNγ response rate ([1]; SQ and ID MAP-vaccinated cats, 6 weeks post-2nd vaccination) [%] | IFNγ production ([1]; cat OCA) [SFU] | IFNγ production ([1]; cat SBA) [SFU]
1 | KKKSGKWRMLIDFRV [FRT3-3] | ± (1.5%-12.4% (±)) | ++ (26%-40% (++)) | ++ (25.1%-40% (++)) | +++ (41%-54% (+++)) | +++ (40.1%-54% (+++)) | – | – | – | – | –
2 | KFLYTAFAMQELR [FTM4-3] | ++++ (>54% (++++)) | ++ (26%-40% (++)) | ++ (25.1%-40% (++)) | ++ (26%-40% (++)) | ++ (25.1%-40% (++)) | ++++ (>54% (++++)) | – | – | – | –
3 | AGLRQSLEQYQVVKQ [FSU4] | +++ (40.1%-54% (+++)) | +++ (41%-54% (+++)) | +++ (40.1%-54% (+++)) | +++ (41%-54% (+++)) | +++ (40.1%-54% (+++)) | +++ (41%-54% (+++)) | – | – | – | –
4 | WRMLIDFRVLNKL [FRT3-4] | ++ (25.1%-40% (++)) | + (12.5%-25% (+)) | + (12.5%-25% (+)) | +++ (41%-54% (+++)) | +++ (40.1%-54% (+++)) | ++ (26%-40% (++)) | 64.3 | 14.3 | – | –
5 | LLLILCLPTLVDCIRN [FTM8(20)] | ++ (25.1%-40% (++)) | ++ (26%-40% (++)) | ++ (25.1%-40% (++)) | ++++ (>54% (++++)) | ++++ (>54% (++++)) | ++ (26%-40% (++)) | – | – | – | –
6 | PTDMATLIMAAPGCA [Fp4-3] | ++ (25.1%-40% (++)) | ++++ (>54% (++++)) | ++++ (>54% (++++)) | + (12.5%-25% (+)) | + (12.5%-25% (+)) | ++ (26%-40% (++)) | – | – | 161 | 60
